Values of other authors, collected in patent US10202400B2, “Cortistatin analogues and syntheses thereof” (President and Fellows of Harvard College, priority 2008, dated 2019).
Values after ≈ are worked out from the molar mass of the structure shown.

Key:
[1] = tested on: several human and murine cancer cell lines and one normal human dermal fibroblast cell line (KB3-1, Neuro2A, K562, NHDF)
[2] = tested on: human umbilical vein endothelial cells (HUVECs)
[3] = tested on: human nasopharynx carcinoma (KB) cells

SMILES | HUVEC cellular migration (HUVEC) | GI50 [1] [µM] | tubular formation in HUVECs (HUVECs) | GI50 [2] [µM] | ED50 [3] [µg/mL]
CN(C)[C@H]1C[C@@]23CC[C@@]4(O2)C(=CC[C@]2(C)[C@@H](c5ccc6ccncc6c5)CC[C@H]24)C=C3[C@@H](O)[C@@H]1O [Cortistatin A, cortistatin A] | inhibits HUVEC cellular migration | 6 to 7 | inhibits tubular formation | 0.00018 | –
CN[C@@H](C)[C@H]1CC[C@H]2[C@@H]3CC[C@@H]4C(=CC3=CC[C@]12C)CC[C@H](NC)C4(C)C [buxenine G] | – | – | – | – | 0.4 (≈ 1.08 µM)
